Source: PubChem BioAssay (NCI)
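Each compound was tested at five concentrations against cells in 96-well plates for 48 hours. Abbreviation: GI50, concentration required for 50% inhibition of growth. TGI: total growth inhibition.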

How the values were obtained:
Test in all cases: NCI anticancer screen, dose series, 48 h
SN12C renal = system: SN12C renal
M14 melanoma = system: M14 melanoma
OVCAR-3 ovarian = system: OVCAR-3 ovarian
COLO 205 colon = system: COLO 205 colon
UACC-62 melanoma = system: UACC-62 melanoma
K-562 leukemia = system: K-562 leukemia
MOLT-4 leukemia = system: MOLT-4 leukemia
HL-60(TB) leukemia = system: HL-60(TB) leukemia
A498 renal = system: A498 renal
BT-549 breast = system: BT-549 breast

| Compound | TGI (SN12C renal) [µM] | TGI (M14 melanoma) [µM] | TGI (OVCAR-3 ovarian) [µM] | TGI (COLO 205 colon) [µM] | TGI (UACC-62 melanoma) [µM] | TGI (K-562 leukemia) [µM] | TGI (MOLT-4 leukemia) [µM] | TGI (HL-60(TB) leukemia) [µM] | TGI (A498 renal) [µM] | GI50 (SN12C renal) [µM] | GI50 (M14 melanoma) [µM] | GI50 (OVCAR-3 ovarian) [µM] | GI50 (A498 renal) [µM] | GI50 (COLO 205 colon) [µM] | GI50 (UACC-62 melanoma) [µM] | GI50 (K-562 leukemia) [µM] | GI50 (BT-549 breast) [µM] | TGI (BT-549 breast) [µM] | GI50 (MOLT-4 leukemia) [µM] | GI50 (HL-60(TB) leukemia) [µM] |
| --- | --- | --- | --- | --- | --- | --- | --- | --- | --- | --- | --- | --- | --- | --- | --- | --- | --- | --- | --- | --- |
| CCOC(=O)/C(=C/c1ccc(C(=O)OC)cc1)N(CC)CC | > 100 | > 100 | 60 | > 100 | > 100 | 82.7 | > 100 | 69.4 |  |  |  |  |  |  |  |  |  |  |  |  |
| CCOP(=O)(OCC)C1CCCOC1=O (stereo unspecified) | > 100 | > 100 | > 100 | > 100 | > 100 | > 100 | > 100 | > 100 | > 100 |  |  |  |  |  |  |  |  |  |  |  |
| C[CH2][Ge]([CH2]C)([CH2]C)[O]C(=O)C(OC(C)=O)c1ccccc1 (stereo unspecified) | > 100 | > 100 | > 100 | > 100 | > 100 | > 100 |  |  | > 100 | > 100 | > 100 | > 100 | > 100 | > 100 | > 100 | > 100 |  |  |  |  |
| CC(=O)c1c2c(cc3c1CC1(C3)Cc3cc4c(c(C(C)=O)c3C1)CCC4)CCC2 | > 100 | > 100 | > 100 | > 100 | > 100 | > 100 | > 100 | > 100 |  |  |  |  |  |  |  |  |  |  |  |  |
| COC(=O)N/N=C(\C)c1c(O)cc(C)oc1=O | > 100 | > 100 |  |  | > 100 | 97.7 | > 100 | > 100 | > 100 |  |  |  |  |  |  |  |  |  |  |  |
| Cc1cccc(C)c1NC(=O)C1=NC(=S)NC(c2ccccc2)C1c1nc2ccccc2s1 (stereo unspecified) | > 100 | > 100 | > 100 | > 100 | > 100 | > 100 | > 100 | > 100 | > 100 |  |  |  |  |  |  |  |  |  |  |  |
| COC(=O)C1Cc2c(n(C)c3ccccc23)C(CCC(=O)O)N1Cc1ccccc1 (stereo unspecified) | > 100 | 62.2 | 53.4 | 71.9 | 77.1 | > 100 | > 100 | > 100 | 76.5 |  |  |  |  |  |  |  |  |  |  |  |
| CN(c1ccc(C(=O)c2ccc(N(C)S(C)(=O)=O)cc2)cc1)S(C)(=O)=O | > 100 |  |  | > 100 | > 100 | > 100 | > 100 | > 100 | > 100 |  |  |  |  |  |  |  |  |  |  |  |
| C[N+](C)(C)CC(=O)N/N=C(/C(=O)Nc1ccc(Br)cc1)C1C(=O)NC(=O)NC1=O | > 100 | > 100 | > 100 | > 100 | > 100 | > 100 | > 100 | > 100 | > 100 |  |  |  |  |  |  |  |  |  |  |  |
| CN(C)C(=N/O)/C(=N\O)N(C)C | > 100 | > 100 |  |  | > 100 | > 100 | > 100 | > 100 | > 100 |  |  |  |  |  |  |  |  |  |  |  |
| N#C/C(=C/c1ccc2c(c1)OCO2)C(=O)c1ccccc1 | > 100 | > 100 | > 100 | > 100 | > 100 | > 100 | > 100 |  | > 100 |  |  |  |  |  |  |  |  |  |  |  |
| COC(=O)C1=C(O)[C@H](C(=O)OC)C2(O)C(C(=O)OC)[C@H](c3ccc(OC(=O)C(C)c4ccc(CC(C)C)cc4)cc3)C[C@@H]1[C@@H]2C(=O)OC (stereo partly specified) | 22.9 | > 50 | > 50 | 41.3 | 22.4 | > 50 |  |  |  | 9.58 | 25.3 | > 50 |  | 12.3 | 9.41 | 0.695 | 1.03 | 3.68 |  |  |
| CC(=O)[O-].Cn1ccnc1CNCc1nccn1C.[Cu+2].[O-][Cl+3]([O-])([O-])[O-] | > 100 | > 100 | > 100 | > 100 | > 100 | > 100 | > 100 | > 100 |  | > 100 | > 100 | > 100 |  | > 100 | 26.9 | > 100 |  |  | > 100 | > 100 |
| c1ccc2c3c([nH]c2c1)[C@H]1C2CCCCN2CN1CC3 (stereo partly specified) | > 100 | > 100 | > 100 | > 100 | > 100 | > 100 | > 100 | > 100 | > 100 |  |  |  |  |  |  |  |  |  |  |  |
| COCN1COCN=C1NC#N | > 100 | > 100 | > 100 | > 100 | > 100 | > 100 | > 100 | > 100 | > 100 |  |  |  |  |  |  |  |  |  |  |  |
| CN(C)CCNC(=O)c1cccc2cc3c(Cl)cccc3nc12 | 3.95 |  | 4.9 | > 29.3 | 3.82 | 4.04 | 0.556 |  | 3.21 |  |  |  |  |  |  |  |  |  |  |  |
| O=S(=O)(O)c1cc(O)c(N=Nc2ccc(O)cc2O)c2ccccc12 | > 100 | > 100 | > 100 | > 100 |  | > 100 | > 100 | > 100 |  |  |  |  |  |  |  |  |  |  |  |  |

| Compound | TGI (SN12C renal) [µM] | TGI (M14 melanoma) [µM] | TGI (OVCAR-3 ovarian) [µM] | TGI (COLO 205 colon) [µM] | TGI (UACC-62 melanoma) [µM] | TGI (K-562 leukemia) [µM] | TGI (MOLT-4 leukemia) [µM] | TGI (HL-60(TB) leukemia) [µM] | TGI (A498 renal) [µM] | GI50 (SN12C renal) [µM] | GI50 (M14 melanoma) [µM] | GI50 (OVCAR-3 ovarian) [µM] | GI50 (A498 renal) [µM] | GI50 (COLO 205 colon) [µM] | GI50 (UACC-62 melanoma) [µM] | GI50 (K-562 leukemia) [µM] | GI50 (BT-549 breast) [µM] | TGI (BT-549 breast) [µM] | GI50 (MOLT-4 leukemia) [µM] | GI50 (HL-60(TB) leukemia) [µM] |
| --- | --- | --- | --- | --- | --- | --- | --- | --- | --- | --- | --- | --- | --- | --- | --- | --- | --- | --- | --- | --- |
| COc1ccc2c3c([nH]c2c1[N+](=O)[O-])C(C)N(Cc1ccccc1)CC3 (stereo unspecified) | > 100 | 28.1 | 49 | > 100 | > 100 | > 100 | 23.4 | 6.1 | 7.71 |  |  |  |  |  |  |  |  |  |  |  |
| CCOC(=O)C(=O)CC1=Nc2ccccc2SC(c2cccc(C)c2)C1 (stereo unspecified) | 31.2 | 35.3 | 34 |  | 31.9 | 57.6 | 47.9 |  | 33 |  |  |  |  |  |  |  |  |  |  |  |
| O=C1N2Cc3c4ccc5c3CN3C(=O)N6Cc7c(ccc(c7CN1C6(c1ccccc1)C23c1ccccc1)OCCOCCNCCOCCO4)OCCOCCNCCOCCO5 (stereo unspecified) | 89.1 | 57.8 | > 100 |  | > 100 | > 100 | > 100 |  | > 100 |  |  |  |  |  |  |  |  |  |  |  |
| c1ccc(C2OC3(CCC[C@H]4C[C@H]43)O[C@H]2c2ccccc2)cc1 (stereo partly specified) | > 100 | > 100 | > 100 | 91.7 | > 100 | > 100 | 63.9 | 41.1 | > 100 |  |  |  |  |  |  |  |  |  |  |  |
| N/C(=N\N=C\c1ccc(C(F)(F)F)cc1)NO | > 100 | 29.2 | 62.9 | 38.7 | 21.7 | > 100 |  | 46.3 | > 100 |  |  |  |  |  |  |  |  |  |  |  |
| O=C([CH-]C(=O)c1ccccc1)c1ccccc1.[CH-]1CCCCC1.[CH-]1CCCCC1.[CH-]1CCCCC1.[Sn+4] | 16.1 | 22.4 | 19.8 | 16.2 | 15.6 | 6.15 | 7.47 | 6.59 | 28.9 | 4.35 | 8.3 | 5.89 | 15.4 | 4.15 | 4.34 | 2.31 |  |  | 2.41 | 2.28 |
| CC1=C(C(=O)Nc2ccccc2)C(c2cccc3ccccc23)C(C(=O)Nc2ccccc2)=C(C)N1 | 33.3 | 32.5 | 26.4 | 26.6 | 27.8 | 72.5 | 43.8 | 40 | 48.5 |  |  |  |  |  |  |  |  |  |  |  |
| ClC/C=C/COC1CCCCO1 (stereo unspecified) | > 100 | > 100 | > 100 | > 100 | > 100 | > 100 | 97 | 51.4 | > 100 |  |  |  |  |  |  |  |  |  |  |  |
| O=C(CC1OC(O)C(Cl)=C1Cl)c1cccnc1 (stereo unspecified) | > 100 | > 100 | > 100 | > 100 | > 100 | > 100 | > 100 | > 100 | > 100 |  |  |  |  |  |  |  |  |  |  |  |
| O=C(/C=C/c1ccccc1F)c1ccc(Cl)c(Cl)c1 | 98.5 | > 100 | > 71.6 | > 100 | > 100 | 48.4 | 77 | 51.4 | > 59.3 |  |  |  |  |  |  |  |  |  |  |  |
| COC(=O)c1ccc(CN2C(=O)C(Cl)=C(Nc3cccc(Cl)c3C)C2=O)cc1 | 55.4 | > 100 | 70.3 | > 100 | > 100 | 21.1 | > 100 |  | 15.2 | 18.2 | 4.01 | 20.2 | 2.54 | 19.7 | 13.4 | 4.32 |  |  | 5.14 |  |
| O=C1C=CC=C/C1=C1/SC(c2ccccc2)=C(O)N1c1ccccc1 | > 100 |  | > 100 | > 100 | > 100 |  |  |  |  |  |  |  |  |  |  |  |  |  |  |  |
| O=c1[nH]c2ccccc2nc1/C=C(\O)c1ccccc1O | > 100 | > 100 | > 100 | > 100 | > 100 | > 100 | > 100 | > 100 | > 100 |  |  |  |  |  |  |  |  |  |  |  |
| CNC(=O)c1c(NC(=O)c2ccc(C(C)(C)C)cc2)sc2c(CN(C)C)c(O)ccc12 |  | 3.54 |  | 4.3 | 3.24 | 1.32 | 3.73 | 3.18 |  |  | 1.74 |  |  | 2.1 | 1.76 | 0.317 |  |  | 1.28 | 1.26 |
| Cc1cc2c(C)n(Cc3ccccc3Cl)nc2c(C(=O)O)c1C | > 100 |  | > 100 |  | > 100 |  | > 100 | > 100 |  |  |  |  |  |  |  |  |  |  |  |  |
| CC1/C(=N\O)CC(c2ccccc2)N(C)C1c1ccccc1 (stereo unspecified) | > 100 | > 100 | > 100 | > 100 | > 100 | > 100 | > 100 | > 100 | > 100 |  |  |  |  |  |  |  |  |  |  |  |
